Assay results: patent US11046680B1, “Heteroaryl-substituted triazoles as APJ receptor agonists” (priority 2016, dated 2021)

Biological target: human APJ receptor (Homo sapiens (Human), UniProt P35414)
Test: biochemical
Type: biochemical
Details: [35S]GTPγS binding, CHO membranes expressing human APJ receptor; read-out: Activity hAPJ SPA EC50 IP
Method in brief: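 GTPγS binding on membranes from CHO cells stably expressing FLAG-tagged human APJ, with optimized GDP, MgCl2 and NaCl; incubated 90 min at RT before imaging read-out.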

Sequence of human APJ receptor (P35414 whole entry): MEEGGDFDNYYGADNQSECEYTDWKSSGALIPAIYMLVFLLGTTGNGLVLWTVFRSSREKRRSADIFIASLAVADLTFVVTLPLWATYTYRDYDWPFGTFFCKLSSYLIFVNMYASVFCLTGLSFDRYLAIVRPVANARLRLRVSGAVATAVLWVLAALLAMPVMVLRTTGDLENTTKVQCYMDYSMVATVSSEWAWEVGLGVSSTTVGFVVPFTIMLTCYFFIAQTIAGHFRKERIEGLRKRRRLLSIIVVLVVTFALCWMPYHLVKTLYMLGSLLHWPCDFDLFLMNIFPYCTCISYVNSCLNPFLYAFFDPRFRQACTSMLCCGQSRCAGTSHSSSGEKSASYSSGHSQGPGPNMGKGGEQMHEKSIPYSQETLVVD

Compound | EC50 [nM]
COc1cccc(OC)c1-n1c(NS(=O)(=O)[C@@H](C)[C@H](OC)c2ncc(C)cn2)nnc1-c1n[nH]c2ccc(Cl)cc12 [Example 412.0, (1R,2S)-N-(5-(5-chloro-1H-indazol-3-yl)-4-(2,6-dimethoxyphenyl)-4H-1,2,4-triazol-3-yl)-1-methoxy-1-(5-methylpyrimidin-2-yl)propane-2-sulfonamide] | 140
COc1cccc(OC)c1-n1c(NS(=O)(=O)[C@@H](C)[C@@H](OC(C)C)c2ncc(F)cn2)nnc1-c1cnn2c1CCC2 [Example 482.0, (1S,2S)-N-(5-(5,6-dihydro-4H-pyrrolo[1,2-b]pyrazol-3-yl)-4-(2,6-dimethoxyphenyl)-4H-1,2,4-triazol-3-yl)-1-(5-fluoropyrimidin-2-yl)-1-isopropoxypropane-2-sulfonamide] | 0.38
COCC(COC)n1c(NS(=O)(=O)[C@@H](C)[C@H](C)c2ncc(Cl)cn2)nnc1-c1nn(C)c2ccc(C)cc12 [Example 448.0, (2S,3R)-3-(5-chloropyrimidin-2-yl)-N-(4-(1,3-dimethoxypropan-2-yl)-5-(1,5-dimethyl-1H-indazol-3-yl)-4H-1,2,4-triazol-3-yl)butane-2-sulfonamide] | 10
COc1cccc(OC)c1-n1c(NS(=O)(=O)[C@@H](C)[C@H](OC)c2ncc(Cl)cn2)nnc1-c1n[nH]c2ccc(C)cc12 [Example 418.0, (1R,25)-1-(5-chloropyrimidin-2-yl)-N-(4-(2,6-dimethoxyphenyl)-5-(5-methyl-1H-indazol-3-yl)-4H-1,2,4-triazol-3-yl)-1-methoxypropane-2-sulfonamide] | 5.5
COc1cccc(OC)c1-n1c(NS(=O)(=O)[C@H](C)[C@@H](C)c2ncc(C)cn2)nnc1-c1csc(C)n1 (stereo in doubt) [Example 2.0, (2R,3S)-N-(4-(2,6-dimethoxyphenyl)-5-(2-methylthiazol-4-yl)-4H-1,2,4-triazol-3-yl)-3-(5-methylpyrimidin-2-yl)butane-2-sulfonamide] | 0.32
(2R,3R)-3-(5-Cyanopyrimidin-2-yl)-N-(4-(2,6-dimethoxyphenyl)-5-(4-methylthiazol-2-yl)-4H-1,2,4-triazol-3-yl)-3-fluorobutane-2-sulfonamide and (2S,3S)-3-(5-cyanopyrimidin-2-yl)-N-(4-(2,6-dimethoxyphenyl)-5-(4-methylthiazol-2-yl)-4H-1,2,4-triazol-3-yl)-3-fluorobutane-2-sulfonamide [Example 321.0] | 1.6
COc1cccc(OC)c1-n1c(NS(=O)(=O)CCc2ccc(Cl)cc2)nnc1-c1cnco1 [Example 138.0, 2-(4-chlorophenyl)-N-(4-(2,6-dimethoxyphenyl)-5-(oxazol-5-yl)-4H-1,2,4-triazol-3-yl)ethanesulfonamide] | 586
COc1cccc(OC)c1-n1c(NS(=O)(=O)[C@H](C)Cc2ncc(F)cn2)nnc1-c1cnccn1 (single isomer, unassigned) [Example 30.0, (R)-N-(4-(2,6-dimethoxyphenyl)-5-(pyrazin-2-yl)-4H-1,2,4-triazol-3-yl)-1-(5-fluoropyrimidin-2-yl)propane-2-sulfonamide or (S)-N-(4-(2,6-dimethoxyphenyl)-5-(pyrazin-2-yl)-4H-1,2,4-triazol-3-yl)-1-(5-fluoropyrimidin-2-yl)propane-2-sulfonamide] | 350
COc1cccc(OC)c1-n1c(NS(=O)(=O)[C@@H]2C[C@H](O)CN(c3ncc(F)cn3)C2)nnc1-c1nc(C)cs1 (single isomer, unassigned) [Example 254.0, (3R,5S)-N-(4-(2,6-dimethoxyphenyl)-5-(4-methyl-1,3-thiazol-2-yl)-4H-1,2,4-triazol-3-yl)-1-(5-fluoro-2-pyrimidinyl)-5-hydroxy-3-piperidinesulfonamide or (3S,5R)-N-(4-(2,6-dimethoxyphenyl)-5-(4-methyl-1,3-thiazol-2-yl)-4H-1,2,4-triazol-3-yl)-1-(5-fluoro-2-pyrimidinyl)-5-hydroxy-3-piperidinesulfonamide] | 1.2
COc1cccc(OC)c1-n1c(NS(=O)(=O)[C@H](C)Cc2ncc(F)cn2)nnc1-c1ncccn1 (single isomer, unassigned) [Example 58.0, (R)-N-(4-(2,6-dimethoxyphenyl)-5-(pyrimidin-2-yl)-4H-1,2,4-triazol-3-yl)-1-(5-fluoropyrimidin-2-yl)propane-2-sulfonamide or (S)-N-(4-(2,6-dimethoxyphenyl)-5-(pyrimidin-2-yl)-4H-1,2,4-triazol-3-yl)-1-(5-fluoropyrimidin-2-yl)propane-2-sulfonamide] | 17
COc1cnc([C@@H](C)[C@H](C)S(=O)(=O)Nc2nnc(-c3cnn4c3CCC4)n2-c2c(OC)cccc2OC)nc1 [Example 485.0, (2S,3R)-N-(5-(5,6-dihydro-4H-pyrrolo[1,2-b]pyrazol-3-yl)-4-(2,6-dimethoxyphenyl)-4H-1,2,4-triazol-3-yl)-3-(5-methoxypyrimidin-2-yl)butane-2-sulfonamide] | 0.3
COc1cccc(OC)c1-n1c(NS(=O)(=O)CC[C@@H](O)C2CCCC2)nnc1-c1nc(C)cs1 (mixture of isomers) [Example 98.0, (R)-3-Cyclopentyl-N-(4-(2,6-dimethoxyphenyl)-5-(4-methylthiazol-2-yl)-4H-1,2,4-triazol-3-yl)-3-hydroxypropane-1-sulfonamide and (S)-3-cyclopentyl-N-(4-(2,6-dimethoxyphenyl)-5-(4-methylthiazol-2-yl)-4H-1,2,4-triazol-3-yl)-3-hydroxypropane-1-sulfonamide] | 5.3
CCc1nc(-c2nnc(NS(=O)(=O)CCc3ccc(F)cc3C#N)n2-c2c(OC)cccc2OC)cs1 [Example 154.0, 2-(2-cyano-4-fluorophenyl)-N-(4-(2,6-dimethoxyphenyl)-5-(2-ethylthiazol-4-yl)-4H-1,2,4-triazol-3-yl)ethanesulfonamide] | 62
COc1cccc(OC)c1-n1c(NS(=O)(=O)[C@@H](C)[C@H](C)c2ncc(Cl)cn2)nnc1-c1noc2c1CCCC2 [Example 441.0, (2S,3R)-3-(5-chloropyrimidin-2-yl)-N-(4-(2,6-dimethoxyphenyl)-5-(4,5,6,7-tetrahydrobenzo[d]isoxazol-3-yl)-4H-1,2,4-triazol-3-yl)butane-2-sulfonamide] | 0.33
COc1cccc(OC)c1-n1c(NS(=O)(=O)[C@H](C)Cc2ncc(F)cn2)nnc1-c1nc(C)cs1 (single isomer, unassigned) [Example 102.0, (R)-N-(4-(2,6-Dimethoxyphenyl)-5-(4-methylthiazol-2-yl)-4H-1,2,4-triazol-3-yl)-1-(5-fluoropyrimidin-2-yl)propane-2-sulfonamide or (S)-N-(4-(2,6-dimethoxyphenyl)-5-(4-methylthiazol-2-yl)-4H-1,2,4-triazol-3-yl)-1-(5-fluoropyrimidin-2-yl)propane-2-sulfonamide] | 4.1
COc1cnc([C@@H](C)[C@@H](C)S(=O)(=O)Nc2nnc(-c3ccn(C)n3)n2-c2c(OC)ncnc2OC)nc1 [Example 298.0] | 1
COc1cccc(OC)c1-n1c(NS(=O)(=O)CCc2ccc(Cl)cc2)nnc1-c1cccs1 [Example 311.0, 2-(4-Chlorophenyl)-N-(4-(2,6-dimethoxyphenyl)-5-(thiophen-2-yl)-4H-1,2,4-triazol-3-yl)ethanesulfonamide] | 3.8
COc1cccc(OC)c1-n1c(NS(=O)(=O)[C@H](C)Cc2ncc(F)cn2)nnc1-c1nc(C)cs1 (single isomer, unassigned) [Example 101.0, (R)-N-(4-(2,6-Dimethoxyphenyl)-5-(4-methylthiazol-2-yl)-4H-1,2,4-triazol-3-yl)-1-(5-fluoropyrimidin-2-yl)propane-2-sulfonamide or (S)-N-(4-(2,6-dimethoxyphenyl)-5-(4-methylthiazol-2-yl)-4H-1,2,4-triazol-3-yl)-1-(5-fluoropyrimidin-2-yl)propane-2-sulfonamide] | 0.7
(1R,2S)-N-(4-(2,6-dimethoxyphenyl)-5-(1-methyl-1H-pyrazol-3-yl)-4H-1,2,4-triazol-3-yl)-1-methoxy-1-(5-methoxy-2-pyrazinyl)-2-propanesulfonamide and (1S,2R)-N-(4-(2,6-dimethoxyphenyl)-5-(1-methyl-1H-pyrazol-3-yl)-4H-1,2,4-triazol-3-yl)-1-methoxy-1-(5-methoxy-2-pyrazinyl)-2-propanesulfonamide [Example 307.0] | 1
COc1ccc(N(C)C)cc1-n1c(NS(=O)(=O)CCc2ccc(Cl)cc2)nnc1-c1cccs1 [Example 252.0, 2-(4-chlorophenyl)-N-(4-(5-(dimethylamino)-2-methoxyphenyl)-5-(2-thiophenyl)-4H-1,2,4-triazol-3-yl)ethanesulfonamide] | 11
COc1cccc(OC)c1-n1c(NS(=O)(=O)[C@H](C)Cc2ncc(F)cn2)nnc1-c1ccncn1 (single isomer, unassigned) [Example 38.0, (R)-N-(4-(2,6-dimethoxyphenyl)-5-(pyrimidin-4-yl)-4H-1,2,4-triazol-3-yl)-1-(5-fluoropyrimidin-2-yl)propane-2-sulfonamide or (R)-N-(4-(2,6-dimethoxyphenyl)-5-(pyrimidin-4-yl)-4H-1,2,4-triazol-3-yl)-1-(5-fluoropyrimidin-2-yl)propane-2-sulfonamide] | 84
COc1cccc(OC)c1-n1c(NS(=O)(=O)CCc2ccc(Cl)cc2)nnc1-c1nccs1 [Example 136.0, 2-(4-chlorophenyl)-N-(4-(2,6-dimethoxyphenyl)-5-(thiazol-2-yl)-4H-1,2,4-triazol-3-yl)ethanesulfonamide] | 35
COc1cccc(OC)c1-n1c(NS(=O)(=O)CCN2C(=O)N(C)CC[C@@H]2C)nnc1-c1nc(C)cs1 [Example 13.0, N-(4-(2,6-dimethoxyphenyl)-5-(4-methyl-1,3-thiazol-2-yl)-4H-1,2,4-triazol-3-yl)-2-((6S)-3,6-dimethyl-2-oxotetrahydro-1(2H)-pyrimidinyl)ethanesulfonamide] | 2.9
